From patent US20250281679A1, “BIOMIMETIC COATING FOR ENDOVASCULAR STENT” (INSERM (Institut National de la Santé et de la Recherche …, priority 2021, published 2025)
Square brackets hold non-standard residues; d marks the D form. Primed or numbered codes have the meaning given here. Ends that are not written are not given here. Lys(N3) = [N-]=[N+]=NCCCC[C@H](N)C(=O)O; PEG4′ = not defined here

Key:
[1] = system: New Zealand White rabbits; assay: Coated flow-diverter stents (CFD) implanted in aneurysm-carrying artery and abdominal aorta of the rabbit aneurysm model, with aspirin and clopidogrel; SEM and histopathology; type: in vivo
Source text: Flow-diverter stents (CFD) are braided meshes made of nitinol, from Sinomed. They are coated by one of the following coatings: • 1. SP1072 peptide according to the invention, or • 2. Hydrophilic polymer eG NTMA (obtained from the electrografting of N-[Tris(hydroxymethyl)Methyl] Acrylamide).
A total of 8 healthy New Zealand White rabbits (including 2 spare animals), male and female, weighing about 3 kg, were included in this study. A total of 3 observation time points of 7 days, 30 days and 60 days postoperatively were set. The experiment was divided into two steps: 1) aneurysm animal modeling; 2) implantation of a dense mesh stent in the aneurysm-carrying artery and abdominal aorta for each animal. The stent implantation in the aneurysm-carrying artery was to be used to examine the safety and effectiveness of the stent in treating aneurysms, and the stent implantation in the abdominal aorta, covering a pair of lumbar arteries, was to be used to examine the safety of the tested stent.
The test group was implanted with a dense mesh stent system in the aneurysm location (common carotid artery) and in the abdominal aorta of the animal model, and the control group was implanted with a dense mesh stent system in the aneurysm-carrying artery, where the abdominal aorta was implanted with the device to evaluate the effect of the stent on the penetrating and branch vessels.
In addition to heparin sodium injection 150 U/kg by IV during implantation, antiplatelet therapy (aspirin and clopidogrel) was given to the animals at 5 mg/kg each by feeding once a day for 3 days before surgery and at 5 mg/kg each by feeding postoperative to endpoint.
The collected tissues of the stented segments of the carrier arteries were preserved in 10% neutral formalin for more than 48 hours of immersion fixation, dehydrated in alcohol gradient and treated with xylene transparency for histopathological analysis.
The resin-embedded stented segment of the aneurysm-carrying artery was sectioned transversely through the neck of the aneurysm, with one slice cut at the aneurysm and two slices cut at the non-aneurysm, and stained with HE; the non-stented segment was paraffin-embedded, with one slice cut at the proximal and one at the distal end; HE staining was performed for histopathological evaluation.
One animal each at 7D (7 days), 30D (30 days) and 60D (60 days) was randomly selected, and the aneurysm-carrying artery and abdominal aorta implanted at the above time points were collected for SEM to observe the endothelialization of the flow-directed stent at the aneurysm neck site and the opening site of the branch vessels at the abdominal aorta site.

[2] = system: New Zealand White rabbits; assay: Coated flow-diverter stents (CFD) in the rabbit aneurysm model, no aspirin nor clopidogrel after implantation; type: in vivo; conditions: 7 days, n=3, no aspirin nor clopidogrel after the implantation; preliminary
Source text: The same materials and protocol as in Example 3 were used, except that: • Only 3 animals were used for each condition, and. • No aspirin nor clopidogrel was given to animals after the implantation.

[3] = system: Human aortic endothelial cells; assay: Human aortic endothelial cells grown 48 h on bare or peptide-coated nitinol disks; F-actin and CD31 fluorescence image analysis; type: cell-based
Procedure: Nitinol disks are left untouched (bare metal) or coated with a domain 1, domain 2 or domain 1 and 2 CD31 analog peptide. The tested peptide is grafted to the nitinol disk following a polydopamine, DBCO-PEG4-amine and azide CD31 derivative peptide using a sequential dip-coating layering procedure. After this step, all the disks are incubated with Human aortic endothelial cells for 48h. Disks are then rinsed and the cells are fixed in a formalin solution before staining. The staining is fulfilled using phalloidin coupled to AlexaFluor®488 dye (green fluorescence for Actin), DAPI is used for DNA staining and a domain 1 CD31 antibody coupled to APC is used for external Domain 1 staining. The cell adhesion and Actin/CD31 expression was evaluated by image analysis of the surface after staining.
In particular, as per FIG. 2 the bare or coated nitinol disks were placed at the bottom of culture wells. Primary Human Aortic Endothelial Cells (HAEC) were allowed to grow on the disks for a period of 48 h. The disks were thereafter rinsed with phosphate buffered saline, fixed in formalin, and processed for fluorescence microscopy. Disk-adherent cells were immersed in a solution comprising Hoechst 33342 (1 μg/ml, to stain the nuclei), phalloidin coupled to AlexaFluor®488 dye (0.5 μM, to stain F-actin fibers) and a monoclonal antibody directed against CD31 domain 1, coupled to allophycocyanin (to detect the presence and localization of intact CD31 at the cell surface) for 1 hour at 37° C., washed and mounted face down on glass bottom imaging chambers for imaging with an inverted fluorescence microscope.
Surface type is indicated on the Y axis, data are expressed as average±SD (N=6/surface type). Each dot corresponds to a specific surface modification. The F-actin expression relates the cellular stress of the cell in presence of the exogenous material.
In FIG. 4 the surface type is indicated on the Y axis. Each dot corresponds to a specific surface modification. Data are expressed as “Integrated Density” average±SD (N=6/surface type). CD31 expression relates the capacity of endothelial cells to adopt a physiologic phenotype while growing on a given substrate. An important variability is observed in terms of CD31 expression by HAEC according to the surface modification of the nitinol disks.
The effect of different peptides, belonging to the different groups, were tested in batches following the same protocol as in FIG. 6. Different peptides from each group were tested in batches and the effect of individual peptides was repeatedly assessed in separate experiments. Data from all experiments were obtained by computer-assisted analysis of images of the disk side covered with endothelial cells, captured in the blue, green and red channel of an inverted fluorescence microscope. The functional score of the peptides belonging to the different groups was calculated by multiplying the number of cells (as detected by the number of blue, Dapi+ nuclei) for the integrated density of CD31 expression (red signal provided by the binding of a mouse anti-human CD31 monoclonal antibody, clone 9G11, conjugated allophycocyanin) and their product being divided for the integrated density of the F-actin polymerization (Phalloidin coupled to a green fluorochrome).
The same protocol as in Example 1 was followed, using peptides according to the invention (SP547, SP548 SP745, SP1374, SP1072, SP1070, SP1071, SP1379 and SP1383) as defined above and the prior art peptide P8RI of sequence KWPALFVR (SEQ ID NO: 52).
The “CD31/Actin” score, resulting from the integrated density of CD31 immunostaining signal divided by the signal of phalloidin, which binds to the polymerized F-actin of the cytoskeleton, has been used to identify the physiological/non-stressed character of the arterial endothelial cells growing onto the surface of experimental disks placed at the bottom of culture wells. […]

[4] = day 7, aneurysm-carrying artery, HE staining, FIG. 29
[5] = day 60, aneurysm-carrying artery, FIG. 30

Substance: YKSTVIVNNKEKTTAE-PEG4-K(N3)-CONH2 (YKSTVIVNNKEKTTAE[PEG4′][Lys(N3)]-NH2) [SP1072]
- endothelialization of the device at sites other than the aneurysm entry (conclusion) ([1]; Example 3 conclusion): fast and complete without apparent inflammation nor neointima
- endothelialization on the inner surface of the flow-diverter stents (conclusion) ([1]; Example 3 conclusion): promotes early endothelialization on the inner surface of the flow-diverter stents
- neo arterial wall at the entry of the aneurysm sac and thrombus inside the sac (conclusion) ([1]; Example 3 conclusion): promotes the growth of an organized, blood-impermeable neo arterial wall at the entry of the aneurysm sac
- entry of fresh blood into the aneurysmal sac / thrombus (histopathology) [1, 4]: fresh blood is no longer allowed to enter and remain trapped there
- organization of the thrombus in the aneurysmal sac (histopathology) [1, 4]: organized
- inflammation/thrombosis of the arterial wall in contact with the stent struts (histopathology) [1, 5]: absence of inflammation/thrombosis of the arterial wall that is already in contact with the stent struts
- organization of the thrombus in the aneurysmal sac (histopathology) [1, 5]: very well organized
- survival and thrombus after implantation [2]: still alive with no thrombus
- CD31/Actin score ([3]; Example 2, FIG. 25, compared to bare metal disks or disks coated with PDA alone): significantly higher
- CD31 expression, Integrated Density ([3]; HAEC 48 h on coated nitinol disks, anti-CD31 domain 1 antibody, compared to other modified disks and bare controls, FIGS. 2, 4, 5): evident positive effect in terms of CD31 expression
- ratio between CD31 and F-actin expression ([3]; compared to bare metal and disks coated with PDA only, FIG. 6): higher CD31/actin ratio
